Results from US20090306171A1, “INDOLE COMPOUNDS HAVING C4-AMIDE SUBSTITUENTS AND USE THEREOF AS PHOSPHOLIPASE-A2 INHIBITORS” (priority 2005, published 2009).

What was measured:
[1] = Stability at low pH; type: physicochemical
[2] = Example 6C pharmokinetic study (IV and oral); type: in vivo, mice; settings: 30 mg/kg oral
Description: This example characterized ILY-4001 [2-(3-(2-amino-2-oxoacetyl)-1-(biphenyl-2-ylmethyl)-2-methyl-1H-indol-4-yloxy)acetic acid], alternatively referred to herein as methyl indoxam, with respect to activity, as determined by IC50 assay (Example 6A), with respect to cell absorption, as determined by in-vitro Caco-2 assay (Example 6B) and with respect to bioavailability, as determined using in-vivo mice studies (Example 6C).
This example evaluated the bioavailability of ILY-4001 [2-(3-(2-amino-2-oxoacetyl)-1-(biphenyl-2-ylmethyl)-2-methyl-1H-indol-4-yloxy)acetic acid], alternatively referred to herein as methyl indoxam. […]
Bioavailability was calculated as a ratio of AUC-oral/AUC-intravenous (IV). To determine this ratio, a first set of subject animals were given a measured intravenous (IV) dose of ILY-4001, followed by a determination of ILY-4001 levels in the blood at various time points after administration (e.g., 5 minutes through 24 hours). Another second set of animals was similarly dosed using oral administration, with blood levels of ILY-4001 determined at various time points after administration (e.g., 30 minutes through 24 hours). The level of ILY-4001 in systemic circulation were determined by generally accepted methods (for example as described in Evans, G., A Handbook of Bioanalysis and Drug Metabolism. Boca Raton, CRC Press (2004)). […]

[3] = Example 5A body weight gain, mice on high fat/high sucrose diabetogenic diet; type: in vivo; settings: for body weight gain compared to the wild-type control group: week 4 and week 10
Experimental: (§1) ILY-4001 (FIG. 2) was evaluated as a PLA2 IB inhibitor in a set of experiments using wild-type mice and genetically deficient PLA2 (−/−) mice (also referred to herein as PLA2 knock-out (KO) mice). In these experiments, wild-type and PLA2 (−/−) mice were maintained on a high fat/high sucrose diet, details of which are described below.
(§2) Briefly, four groups were set up, each having six mice. Three of the groups included six wild-type PLA2 (+/+) mice in each group (eighteen mice total), and one of the groups included six genetically deficient PLA2 (−/−) mice. One of the wild-type groups was used as a wild-type control group, and was not treated with ILY-4001. The other two wild-type groups were treated with ILY-4001-one group at a lower dose (indicated as “L” in Table 1) of 25 mg/kg/day, and the other at a higher dose (indicated as “H” in Table 1) of 90 mg/kg/day. The group comprising the PLA2 (−/−) mice was used as a positive control group.
(§3) The experimental protocol used in this study was as follows. The four groups of mice, including wild type and isogenic PLA2 (−/−) C57BL/J mice were acclimated for three days on a low fat/low carbohydrate diet After the three day acclimation phase, the animals were fasted overnight and serum samples taken to establish baseline plasma cholesterol, triglyceride, and glucose levels, along with baseline body weight. The mice in each of the treatment groups were then fed a high fat/high sucrose diabetogenic diet (Research Diets D12331). 1000 g of the high fat/high sucrose D12331 diet was composed of casein (228 g), DL-methionine (2 g), maltodextrin 10 (170 g), sucrose (175 g), soybean oil (25 g), hydrogenated coconut oil (333.5 g), mineral mix S10001 (40 g), sodium bicarbonate (10.5 g), potassium citrate (4 g), vitamin mix V10001 (10 g), and choline bitartrate (2 g). This diet was supplemented with ILY-4001 treatments such that the average daily dose of the compound ingested by a 25 g mouse was: 0 mg/kg/day (wild-type control group and PLA2 (−/−) control group); 25 mg/kg/day (low-dose wild-type treatment group), or 90 mg/kg/day (high-dose wild-type treatment group). The animals were maintained on the high fat/high sucrose diet, with the designated ILY-4001 supplementation, for a period of ten weeks.
(§4) Body weight measurements were taken for all animals in all treatment and control groups at the beginning of the treatment period and at 4 weeks and 10 weeks after initiation of the study. (See Example 5A). Blood draws were also taken at the beginning of the treatment period (baseline) and at 4 weeks and 10 weeks after initiation of the study, in order to determine fasting glucose (See Example 5B). Cholesterol and triglyceride levels were determined from blood draws taken at the beginning of the treatment (baseline) and at ten weeks. (See Example 5C).
In the study generally described above in Example 5, body weight measurements were taken for all animals in all treatment and control groups at the beginning of the treatment period and at 4 weeks and 10 weeks after initiation of the study.

[4] = biological target: mouse PLA2 IB enzyme (Mus musculus, UniProt Q9Z0Y2); settings: pyrene substrate release from vesicles; Singer, Ghomashchi et al. 2002; read-out: IC50 value versus the mouse PLA2 IB enzyme; cited from earlier work
Chain of mouse PLA2 IB enzyme (Q9Z0Y2 23-146): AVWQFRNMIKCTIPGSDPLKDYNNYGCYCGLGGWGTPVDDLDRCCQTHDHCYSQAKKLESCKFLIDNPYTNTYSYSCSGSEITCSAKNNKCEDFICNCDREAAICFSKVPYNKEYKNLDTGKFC

[5] = Example 5C serum cholesterol and triglycerides, mice on high fat/high sucrose diabetogenic diet; type: in vivo; settings: 10 weeks
Experimental: as §1, §2, §3
as §4, with “(See Example 5C).” left out

[6] = biological target: human PLA2 IB enzyme (Homo sapiens, UniProt P04054); settings: pyrene substrate release from vesicles; Singer, Ghomashchi et al. 2002; read-out: IC50 value versus the human PLA2 IB enzyme; cited from earlier work
Chain of human PLA2 IB enzyme (P04054 23-148): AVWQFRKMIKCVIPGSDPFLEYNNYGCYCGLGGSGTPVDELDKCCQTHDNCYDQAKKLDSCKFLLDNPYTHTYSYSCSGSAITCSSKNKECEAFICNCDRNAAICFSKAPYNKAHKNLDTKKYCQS

[7] = Example 5B fasting serum glucose, mice on high fat/high sucrose diabetogenic diet; type: in vivo; settings: low dose (25 mg/kg/day)
Experimental: as §1, §2
The experimental protocol used in this study was as follows. […]
Body weight measurements were taken for all animals in all treatment and control groups at the beginning of the treatment period and at 4 weeks and 10 weeks after initiation of the study. […] Cholesterol and triglyceride levels were determined from blood draws taken at the beginning of the treatment (baseline) and at ten weeks. […]

[8] = tested on: Caco-2 monolayers; experiment: Example 6B Caco-2 permeability study; type: in vitro ADME, human; settings: for apparent permeability: apical to basolateral, Caco-2 monolayers
Experimental: The culture medium was refreshed every 48 hours.
Papp=(dQ/dt)×(1/C0)×(1/A)

Row | Compound | stability at low pH [1] | level of non-absorption from the GI tract into systemic circulation [2] [%] | body weight gain compared to the wild-type control group ([3]; 25 mg/kg/d in diet) | body weight gain, extent of modulation relative to PLA2 (−/−) mice ([3]; 25 mg/kg/d, four weeks) | body weight gain compared to the wild-type control group ([3]; 90 mg/kg/d in diet) | body weight gain, extent of modulation relative to PLA2 (−/−) mice ([3]; 90 mg/kg/d, four weeks) | body weight gain, extent of modulation relative to PLA2 (−/−) mice ([3]; low-dose (25 mg/kg/d), ten weeks) | IC50 [4] [nM] | plasma levels of cholesterol ([5]; high dose (90 mg/kg/day)) | plasma levels of triglycerides ([5]; high dose (90 mg/kg/day)) | plasma levels of cholesterol ([5]; low dose (25 mg/kg/day)) | plasma levels of triglycerides ([5]; low dose (25 mg/kg/day)) | IC50 [6] [nM] | fasting glucose levels ([7]; week four) | fasting glucose levels ([7]; week ten) | apparent permeability [8] | absorption from the GI lumen ([8]; based on Caco-2 assays and pharmokinetic studies)
1 | Cc1c(C(=O)C(N)=O)c2c(OCC(=O)O)cccc2n1Cc1ccccc1-c1ccccc1 [ILY-4001, 2-(3-(2-amino-2-oxoacetyl)-1-(biphenyl-2-ylmethyl)-2-methyl-1H-indol-4-yloxy)acetic acid] | stable at low pH | ~72 | significantly reduced body weight gains | approaching that achieved in the PLA2 (−/−) mice | significantly reduced body weight gains | approaching that achieved in the PLA2 (−/−) mice | comparable to that achieved in the PLA2 (−/−) mice | ~150 | substantially reduced | substantially reduced | substantially reduced | substantially reduced | ~200 | moderately beneficial effect | a beneficial effect was not observed | around 1.66×10^−7 cm/s | relatively low absorption
2 | Lucifer Yellow | – | – | – | – | – | – | – | – | – | – | – | – | – | – | – | around 2.82×10^−7+/−0.37×10^−7 cm/s | –
